Data: article PMC10105652, “Resistance to ceftazidime-avibactam in a KPC-2–producing Klebsiella pneumoniae caused by the extended-spectrum beta-lactamase VEB-25” (European Journal of Clinical Microbiology & Infectious …, 2023)
Where two headings read alike, the source gives them in different places.

Target: T1, VEB-1 (Escherichia coli, UniProt Q7BVU7)
T1 construct: gene blaVEB; natural allele amplified and cloned in pCR-Blunt II-TOPO, E. coli Top10; crude extract
Assay: cephalothin hydrolysis, UV […] nm, crude extract
Type: biochemical
Settings: 100 µM cephalothin, 100 mM sodium phosphate pH 7.0, 3 min preincubation

SMILES: O=C(NC1CCNCC1)[C@@H]1CC[C@@H]2CN1C(=O)N2OS(=O)(=O)O [relebactam]
- IC50 (read-out: REL): 2.4 µM

SMILES: O=C(O)[C@H]1/C(=C/CO)O[C@@H]2CC(=O)N21 [clavulanic acid]
- IC50 (read-out: CLA): 0.05 µM

SMILES: O=C(O)C[C@@H]1CC[C@H](NC(=O)Cc2cccs2)B(O)O1 [vaborbactam]
- IC50 (read-out: VAB): 1.1 µM

SMILES: C[C@]1(Cn2ccnn2)[C@H](C(=O)O)N2C(=O)C[C@H]2S1(=O)=O [tazobactam]
- IC50 (read-out: CLA): 0.05 µM

SMILES: NC(=O)[C@@H]1CC[C@@H]2CN1C(=O)N2OS(=O)(=O)O [avibactam]
- IC50 (read-out: AVI): 0.9 µM
